These are literature values, as cited in article PMC3993928 (Journal of Medicinal Chemistry, 2014).

The subject of data set [1] is C57BL/6 mice. Particulars: mouse WWTW.
Data set [2] deals with T1, δ opioid receptor (DOPr) (Rattus norvegicus, UniProt P33533). Particulars: relative to DPDPE at 10 μM; dns = does not stimulate.
Data set [3] addresses T2, κ opioid receptor (KOPr) (Homo sapiens, UniProt P41145). Particulars: read-out: Ki (nM) KOPr; [3H]diprenorphine displacement.
Data set [4] addresses T1, δ opioid receptor (DOPr). The following applies: read-out: Ki (nM) DOPr; [3H]diprenorphine displacement.
Data set [5] concerns the target T3, μ opioid receptor (MOPr) (Rattus norvegicus, UniProt P33535). The following applies: read-out: Ki (nM) MOPr; [3H]diprenorphine displacement.
Data set [6] addresses T2, κ opioid receptor (KOPr). The following applies: relative to U69,593 at 10 μM; dns = does not stimulate.
The target of data set [7] is T3, μ opioid receptor (MOPr). The following applies: read-out: EC50 (nM), MOPr; [35S]GTPγS binding. (GTPγS resists hydrolysis and so accumulates on activated G proteins.)

T2 sequence (P41145 whole entry): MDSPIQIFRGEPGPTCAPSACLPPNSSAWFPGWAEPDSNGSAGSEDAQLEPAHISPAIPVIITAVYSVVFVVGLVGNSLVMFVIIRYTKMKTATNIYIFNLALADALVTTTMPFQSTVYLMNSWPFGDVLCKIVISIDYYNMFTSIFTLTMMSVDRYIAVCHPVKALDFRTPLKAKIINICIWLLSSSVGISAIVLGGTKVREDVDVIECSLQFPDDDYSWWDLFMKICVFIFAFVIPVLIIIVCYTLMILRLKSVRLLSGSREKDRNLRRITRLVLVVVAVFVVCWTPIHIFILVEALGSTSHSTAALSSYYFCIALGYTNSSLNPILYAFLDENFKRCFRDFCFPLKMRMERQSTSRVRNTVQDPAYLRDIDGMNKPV
T3 sequence (P33535 whole entry): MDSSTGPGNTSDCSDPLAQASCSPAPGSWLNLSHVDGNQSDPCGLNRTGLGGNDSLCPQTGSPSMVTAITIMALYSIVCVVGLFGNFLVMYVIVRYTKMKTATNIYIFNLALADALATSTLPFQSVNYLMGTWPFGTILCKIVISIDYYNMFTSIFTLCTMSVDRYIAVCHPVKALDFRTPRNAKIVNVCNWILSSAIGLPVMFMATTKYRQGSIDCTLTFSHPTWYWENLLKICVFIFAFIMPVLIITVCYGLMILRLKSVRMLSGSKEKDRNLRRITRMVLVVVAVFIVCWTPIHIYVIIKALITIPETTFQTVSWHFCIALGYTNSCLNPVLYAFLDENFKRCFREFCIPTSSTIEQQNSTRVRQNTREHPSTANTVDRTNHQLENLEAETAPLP
T1 sequence (P33533 whole entry): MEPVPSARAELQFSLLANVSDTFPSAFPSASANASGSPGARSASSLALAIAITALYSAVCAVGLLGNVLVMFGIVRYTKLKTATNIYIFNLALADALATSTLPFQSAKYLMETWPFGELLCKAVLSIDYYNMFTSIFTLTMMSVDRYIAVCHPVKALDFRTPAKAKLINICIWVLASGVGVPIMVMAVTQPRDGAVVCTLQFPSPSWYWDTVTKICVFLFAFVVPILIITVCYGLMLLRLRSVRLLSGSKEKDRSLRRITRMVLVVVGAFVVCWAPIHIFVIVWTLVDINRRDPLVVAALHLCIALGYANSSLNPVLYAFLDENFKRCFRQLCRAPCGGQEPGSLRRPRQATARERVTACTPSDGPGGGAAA

For `CN1CC[C@]23c4c5ccc(O)c4O[C@H]2[C@@H](O)C=C[C@H]3[C@H]1C5` [morphine], the “duration of antinociceptive action relative to 4 (fold longer)” value in data set [1] was “approximately 2 fold”.

Take “Dmt-c(SEtS)[DCys-Aci-DPen]OH [compound 1]”: in data set [2], the “efficacy (% of control), DOPr” value is on record as “dns”. Further, the results for the Ki in data set [3], in data set [4] and in data set [5] were 776 ± 149 nM, 2.3 ± 0.5 nM and 2.4 ± 0.7 nM, respectively. Besides, in data set [6], the “efficacy (% of control), KOPr” value is reported as “dns”. Besides, in data set [7], the concentration for a half-maximal effect (EC50) was 4.7 ± 0.7 nM.

What is called Ki is the dissociation constant of the complex between target and ligand, obtained from inhibition or displacement. The term EC50 denotes the concentration at which the effect is half-maximal.
